Source: PubChem BioAssay (NCI)
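Five concentrations, 48 hours, 96-well plates. GI50: concentration for 50% inhibition of growth. TGI denotes the concentration required for complete inhibition of growth.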

Experiments:
Assay in all cases: inhibition of tumour cell growth, NCI panel, 48 h
A549 NSCLC = system: A549 NSCLC
A498 renal = system: A498 renal
MDA-MB-435 = system: MDA-MB-435
HT29 colon = system: HT29 colon
SW-620 colon = system: SW-620 colon
TK-10 renal = system: TK-10 renal
MDA-MB-231 breast = system: MDA-MB-231 breast
U251 CNS = system: U251 CNS
SK-MEL-5 melanoma = system: SK-MEL-5 melanoma
OVCAR-3 ovarian = system: OVCAR-3 ovarian
HS 578T breast = system: HS 578T breast
HCC-2998 colon = system: HCC-2998 colon
SK-OV-3 ovarian = system: SK-OV-3 ovarian
RPMI-8226 leukemia = system: RPMI-8226 leukemia
SK-MEL-28 melanoma = system: SK-MEL-28 melanoma
CAKI-1 renal = system: CAKI-1 renal
SF-539 CNS = system: SF-539 CNS
SF-295 CNS = system: SF-295 CNS
UACC-62 melanoma = system: UACC-62 melanoma
KM12 colon = system: KM12 colon
EKVX NSCLC = system: EKVX NSCLC
K-562 leukemia = system: K-562 leukemia
MOLT-4 leukemia = system: MOLT-4 leukemia
LOX IMVI melanoma = system: LOX IMVI melanoma
NCI/ADR-RES ovarian = system: NCI/ADR-RES ovarian
MCF7 breast = system: MCF7 breast
M14 melanoma = system: M14 melanoma
HOP-92 NSCLC = system: HOP-92 NSCLC
ACHN renal = system: ACHN renal
OVCAR-4 ovarian = system: OVCAR-4 ovarian
NCI-H460 lung = system: NCI-H460 lung
HOP-62 NSCLC = system: HOP-62 NSCLC
IGROV1 ovarian = system: IGROV1 ovarian
SF-268 CNS = system: SF-268 CNS
HCT-116 colon = system: HCT-116 colon
COLO 205 colon = system: COLO 205 colon
SNB-75 CNS = system: SNB-75 CNS
CCRF-CEM leukemia = system: CCRF-CEM leukemia
T-47D breast = system: T-47D breast
HL-60(TB) leukemia = system: HL-60(TB) leukemia
HCT-15 colon = system: HCT-15 colon
NCI-H226 lung = system: NCI-H226 lung
PC-3 prostate = system: PC-3 prostate
BT-549 breast = system: BT-549 breast
SK-MEL-2 melanoma = system: SK-MEL-2 melanoma
OVCAR-5 ovarian = system: OVCAR-5 ovarian
MALME-3M melanoma = system: MALME-3M melanoma
SNB-19 CNS = system: SNB-19 CNS
NCI-H23 lung = system: NCI-H23 lung
RXF 393 renal = system: RXF 393 renal
NCI-H522 lung = system: NCI-H522 lung
UO-31 renal = system: UO-31 renal
SR leukemia = system: SR leukemia
SN12C renal = system: SN12C renal
786-0 renal = system: 786-0 renal
DU-145 prostate = system: DU-145 prostate
UACC-257 melanoma = system: UACC-257 melanoma
OVCAR-8 ovarian = system: OVCAR-8 ovarian

## CN(CCCN(C)CCC1CCCCC1)CCC1CCCCC1
A549 NSCLC
  GI50: 9.8 µM
  TGI: 24.1 µM
A498 renal
  GI50: 5.14 µM
  TGI: 13.8 µM
MDA-MB-435
  GI50: 0.755 µM
  TGI: 2.27 µM
HT29 colon
  GI50: 0.475 µM
  TGI: 2.37 µM
SW-620 colon
  GI50: 2.28 µM
  TGI: 6.84 µM
TK-10 renal
  GI50: 1.62 µM
  TGI: 3.55 µM
MDA-MB-231 breast
  GI50: 1.38 µM
  TGI: 4.68 µM
U251 CNS
  GI50: 1.97 µM
  TGI: 7.48 µM
SK-MEL-5 melanoma
  GI50: 1.32 µM
  TGI: 2.61 µM
OVCAR-3 ovarian
  GI50: 3.95 µM
  TGI: 15 µM
HS 578T breast
  GI50: 2.26 µM
  TGI: 6.68 µM
HCC-2998 colon
  GI50: 1.6 µM
  TGI: 3.23 µM
SK-OV-3 ovarian
  GI50: 5.34 µM
  TGI: 17.1 µM
RPMI-8226 leukemia
  GI50: 1.47 µM
  TGI: 5.09 µM
SK-MEL-28 melanoma
  GI50: 1.91 µM
  TGI: 3.41 µM
CAKI-1 renal
  GI50: 1.52 µM
  TGI: 3.82 µM
SF-539 CNS
  GI50: 1.7 µM
  TGI: 3.53 µM
SF-295 CNS
  GI50: 1.46 µM
  TGI: 3.02 µM
UACC-62 melanoma
  GI50: 0.888 µM
  TGI: 2.39 µM
KM12 colon
  GI50: 2.04 µM
  TGI: 4.12 µM
EKVX NSCLC
  GI50: 2.24 µM
  TGI: 11.1 µM
K-562 leukemia
  GI50: 1.97 µM
  TGI: 7.02 µM
MOLT-4 leukemia
  GI50: 2.4 µM
  TGI: 7.3 µM
LOX IMVI melanoma
  GI50: 1.61 µM
  TGI: 3.55 µM
NCI/ADR-RES ovarian
  GI50: 6.6 µM
  TGI: 20.1 µM
MCF7 breast
  GI50: 1.62 µM
  TGI: 3.28 µM
M14 melanoma
  GI50: 1.27 µM
  TGI: 2.59 µM
HOP-92 NSCLC
  GI50: 0.687 µM
  TGI: 5.72 µM
ACHN renal
  GI50: 4 µM
  TGI: 14.9 µM
OVCAR-4 ovarian
  GI50: 3.35 µM
  TGI: 14.6 µM
NCI-H460 lung
  GI50: 2.65 µM
  TGI: 6.7 µM
HOP-62 NSCLC
  GI50: 5.3 µM
  TGI: 17.7 µM
IGROV1 ovarian
  GI50: 1.09 µM
  TGI: 5.54 µM
SF-268 CNS
  GI50: 5.14 µM
  TGI: 18.9 µM
HCT-116 colon
  GI50: 2.52 µM
  TGI: 7.45 µM
COLO 205 colon
  GI50: 1.77 µM
  TGI: 3.27 µM
SNB-75 CNS
  GI50: 2.04 µM
  TGI: 6.39 µM
CCRF-CEM leukemia
  GI50: 3.03 µM
  TGI: 21.7 µM
T-47D breast
  GI50: 1.64 µM
  TGI: 4.15 µM
HL-60(TB) leukemia
  GI50: 0.319 µM
  TGI: 8.61 µM
HCT-15 colon
  GI50: 2.02 µM
  TGI: 8.21 µM
NCI-H226 lung
  GI50: 2.57 µM
  TGI: 11.9 µM
PC-3 prostate
  GI50: 2.62 µM
  TGI: 15.4 µM
BT-549 breast
  GI50: 2.64 µM
  TGI: 11.1 µM
SK-MEL-2 melanoma
  GI50: 2.19 µM
  TGI: 4.84 µM
OVCAR-5 ovarian
  GI50: 2.98 µM
  TGI: 10.7 µM
MALME-3M melanoma
  GI50: 1.39 µM
  TGI: 3.03 µM
SNB-19 CNS
  GI50: 3.76 µM
  TGI: 9.98 µM
NCI-H23 lung
  GI50: 8.7 µM
  TGI: 22.1 µM
RXF 393 renal
  GI50: 0.946 µM
  TGI: 3.54 µM
NCI-H522 lung
  GI50: 1.77 µM
  TGI: 4.36 µM
UO-31 renal
  GI50: 1.58 µM
  TGI: 14.4 µM
SR leukemia
  GI50: 1.19 µM
  TGI: 4.21 µM
SN12C renal
  GI50: 6.49 µM
  TGI: 20.6 µM
786-0 renal
  GI50: 3.46 µM
  TGI: 13.7 µM
DU-145 prostate
  GI50: 8.51 µM
  TGI: 20.8 µM
UACC-257 melanoma
  GI50: 0.291 µM
  TGI: 0.876 µM
OVCAR-8 ovarian
  GI50: 4.85 µM
  TGI: 18.4 µM
